In patent publication US10081624B2, “Heterocyclic compound” (Takeda Pharmaceutical Company Limited, priority 2014, dated 2018):

Assays:
HDAC6 enzyme = molecular target: T1, HDAC6 enzyme (Homo sapiens, UniProt Q9UBN7); test: HDAC6 enzyme inhibitory assay (HDAC-Glo I/II Assay kit); assay type: biochemical; settings: 1 μM test compound; for inhibition at 1 µM: read-out: HDAC6 inhibitory rate (%) (1 μM)
T1 construct: prepared by transducing full length HDAC1 and HDAC6 genes into Sf-9 insect cells; GST; purchased SignalChem; host or cells: Sf-9 insect cells
T1 sequence (Q9UBN7 1-1215): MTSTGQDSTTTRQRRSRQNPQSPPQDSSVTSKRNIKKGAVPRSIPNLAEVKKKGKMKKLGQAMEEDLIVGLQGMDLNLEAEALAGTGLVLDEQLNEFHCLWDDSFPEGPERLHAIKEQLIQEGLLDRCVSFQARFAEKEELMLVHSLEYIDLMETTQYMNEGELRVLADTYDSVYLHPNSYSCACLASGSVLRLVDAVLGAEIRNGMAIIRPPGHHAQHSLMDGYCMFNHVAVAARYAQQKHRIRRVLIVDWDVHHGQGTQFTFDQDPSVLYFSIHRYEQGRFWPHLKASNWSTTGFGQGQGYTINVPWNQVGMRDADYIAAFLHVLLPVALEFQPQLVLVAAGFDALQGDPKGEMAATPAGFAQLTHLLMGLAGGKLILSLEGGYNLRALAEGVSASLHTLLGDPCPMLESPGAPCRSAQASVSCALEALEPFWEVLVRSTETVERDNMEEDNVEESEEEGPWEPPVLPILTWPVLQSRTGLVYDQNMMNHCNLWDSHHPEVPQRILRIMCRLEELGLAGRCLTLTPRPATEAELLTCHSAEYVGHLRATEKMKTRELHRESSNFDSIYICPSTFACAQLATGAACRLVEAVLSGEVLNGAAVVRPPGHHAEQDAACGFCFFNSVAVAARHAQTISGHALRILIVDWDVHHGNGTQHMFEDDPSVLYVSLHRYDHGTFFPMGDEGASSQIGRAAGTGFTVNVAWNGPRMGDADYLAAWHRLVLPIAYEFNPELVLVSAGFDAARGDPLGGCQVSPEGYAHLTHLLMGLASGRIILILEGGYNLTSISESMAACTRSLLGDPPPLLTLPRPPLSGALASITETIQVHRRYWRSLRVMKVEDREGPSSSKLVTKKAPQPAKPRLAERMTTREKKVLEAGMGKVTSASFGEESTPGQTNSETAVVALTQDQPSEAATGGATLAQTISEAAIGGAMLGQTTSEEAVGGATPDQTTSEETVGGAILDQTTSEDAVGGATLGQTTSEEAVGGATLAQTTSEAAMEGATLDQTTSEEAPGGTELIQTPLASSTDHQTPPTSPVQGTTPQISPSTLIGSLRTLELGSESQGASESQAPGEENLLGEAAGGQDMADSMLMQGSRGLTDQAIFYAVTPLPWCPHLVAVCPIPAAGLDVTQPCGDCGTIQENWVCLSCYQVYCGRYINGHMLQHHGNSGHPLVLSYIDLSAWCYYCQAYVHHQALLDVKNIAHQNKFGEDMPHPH
Outline: (§1)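 Relative activity was calculated from luminescence, with wells lacking enzyme defined as 100% inhibition. The enzymes were full-length HDAC1 or HDAC6 from Sf-9 cells, preincubated with test compound for 60 min before a 20-min substrate-developer reaction at room temperature.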

HDAC1 enzyme = molecular target: T2, HDAC1 enzyme (Homo sapiens, UniProt Q13547); test: HDAC1 enzyme inhibitory assay (HDAC-Glo I/II Assay kit); assay type: biochemical; settings: 1 μM test compound; for inhibition at 1 µM: read-out: HDAC1 inhibitory rate (%) (1 μM)
T2 construct: prepared by transducing full length HDAC1 and HDAC6 genes into Sf-9 insect cells; GST; purchased SignalChem; host or cells: Sf-9 insect cells
T2 sequence (Q13547 whole entry): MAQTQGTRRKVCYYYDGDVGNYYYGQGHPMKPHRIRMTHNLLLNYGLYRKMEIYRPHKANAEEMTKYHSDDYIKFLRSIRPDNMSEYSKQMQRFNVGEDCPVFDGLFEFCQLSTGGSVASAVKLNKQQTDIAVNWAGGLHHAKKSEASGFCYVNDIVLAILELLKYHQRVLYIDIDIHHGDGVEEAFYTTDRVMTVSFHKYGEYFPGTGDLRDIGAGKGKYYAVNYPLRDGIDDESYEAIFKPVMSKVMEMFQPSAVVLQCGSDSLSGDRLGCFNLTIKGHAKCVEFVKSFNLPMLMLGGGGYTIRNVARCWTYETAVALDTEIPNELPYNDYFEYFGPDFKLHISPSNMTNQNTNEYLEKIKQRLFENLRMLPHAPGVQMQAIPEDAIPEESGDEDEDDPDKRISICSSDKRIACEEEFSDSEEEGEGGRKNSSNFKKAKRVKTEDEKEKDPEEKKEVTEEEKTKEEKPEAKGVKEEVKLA
Outline: as §1

inhibition at 1 µM (HDAC6 enzyme) | inhibition at 1 µM (HDAC1 enzyme) | HDAC6 inhibitory rate (%) (1 μM) (HDAC6 enzyme; 1 µM) | HDAC1 inhibitory rate (%) (1 μM) (HDAC1 enzyme) | SMILES
99% | 77% |  |  | Cn1nc2ccccc2c1C(=O)N1CCOC[C@@H]1CNC(=O)c1ccc(-c2noc(C(F)(F)F)n2)cn1 [Example 184, N-(((3S)-4-((2-methyl-2H-indazol-3-yl)carbonyl)morpholin-3-yl)methyl)-5-(5-(trifluoromethyl)-1,2,4-oxadiazol-3-yl)pyridine-2-carboxamide]
89% | 7% |  |  | O=C(O)c1cccc(C(=O)N2CCOC[C@@H]2CNC(=O)c2ccc(-c3noc(C(F)(F)F)n3)cc2)c1 [Example 269, 3-(((3S)-3-(((4-(5-(trifluoromethyl)-1,2,4-oxadiazol-3-yl)benzoyl)amino)methyl)morpholin-4-yl)carbonyl)benzoic acid]
97% | 14% |  |  | Cc1cc(C(=O)N2CCOC[C@@H]2CNC(=O)c2ccc(-c3noc(C(F)(F)F)n3)cc2)n(C)n1 [Example 63, N-(((3S)-4-((1,3-dimethyl-1H-pyrazol-5-yl)carbonyl)morpholin-3-yl)methyl)-4-(5-(trifluoromethyl)-1,2,4-oxadiazol-3-yl)benzamide]
98% | 33% |  |  | CC(C)(C(=O)N1CCOC[C@@H]1CNC(=O)c1ccc(-c2noc(C(F)(F)F)n2)cn1)c1ccccc1 [Example 206, N-(((3S)-4-(2-methyl-2-phenylpropanoyl)morpholin-3-yl)methyl)-5-(5-(trifluoromethyl)-1,2,4-oxadiazol-3-yl)pyridine-2-carboxamide]
98% | 24% |  |  | O=C(NCC1COCCN1C(=O)c1cc2ccccc2o1)c1ccc(-c2noc(C(F)(F)F)n2)cc1 (stereo not drawn) [Example 19, N-((4-(1-benzofuran-2-ylcarbonyl)morpholin-3-yl)methyl)-4-(5-(trifluoromethyl)-1,2,4-oxadiazol-3-yl)benzamide]
97% | 25% |  |  | O=C(NCC1CCCCN1C(=O)c1ccccc1)c1ccc(-c2noc(C(F)(F)F)n2)cc1 (stereo not drawn) [Example 163, N-((1-benzoylpiperidin-2-yl)methyl)-4-(5-(trifluoromethyl)-1,2,4-oxadiazol-3-yl)benzamide]
15% | 4% |  |  | O=C(NC[C@H]1COCCN1C(=O)Cn1cnccc1=O)c1ccc(-c2noc(C(F)(F)F)n2)cc1 [Example 83, N-(((3S)-4-((6-oxopyrimidin-1(6H)-yl)acetyl)morpholin-3-yl)methyl)-4-(5-(trifluoromethyl)-1,2,4-oxadiazol-3-yl)benzamide]
99% | 30% |  |  | Cc1nocc1C(=O)N1CCOCC1CNC(=O)c1ccc(-c2noc(C(F)(F)F)n2)cc1 (stereo in doubt) [Example 94, N-(((3S)-4-((3-methyl-1,2-oxazol-4-yl)carbonyl)morpholin-3-yl)methyl)-4-(5-(trifluoromethyl)-1,2,4-oxadiazol-3-yl)benzamide]
97% | 57% |  |  | O=C(NC[C@H]1COCCN1C(=O)c1cc(Cl)cc(Cl)c1)c1ccc(-c2noc(C(F)(F)F)n2)cn1 [Example 183, N-(((3S)-4-(3,5-dichlorobenzoyl)morpholin-3-yl)methyl)-5-(5-(trifluoromethyl)-1,2,4-oxadiazol-3-yl)pyridine-2-carboxamide]
96% | 4% |  |  | O=C(NC[C@H]1COCCN1C(=O)N1CC2C(C1)C2(F)F)c1ccc(-c2noc(C(F)(F)F)n2)cc1 (stereo partly drawn) [Example 309, N-(((3S)-4-((6,6-difluoro-3-azabicyclo[3.1.0]hex-3-yl)carbonyl)morpholin-3-yl)methyl)-4-(5-(trifluoromethyl)-1,2,4-oxadiazol-3-yl)benzamide]
98% | 30% |  |  | O=C(NC[C@@H]1COCCN1C(=O)C1CCCCC1)c1ccc(-c2noc(C(F)(F)F)n2)s1 [Example 266, N-(((3R)-4-(cyclohexylcarbonyl)morpholin-3-yl)methyl)-5-(5-(trifluoromethyl)-1,2,4-oxadiazol-3-yl)thiophene-2-carboxamide]
90% | 4% |  |  | O=C(NC[C@H]1COCCN1C(=O)N1CCC(CCO)C1)c1ccc(-c2noc(C(F)(F)F)n2)cc1 (stereo partly drawn) [Example 300, N-(((3S)-4-((3-(2-hydroxyethyl)pyrrolidin-1-yl)carbonyl)morpholin-3-yl)methyl)-4-(5-(trifluoromethyl)-1,2,4-oxadiazol-3-yl)benzamide]
 |  | 88% | 5% | O=C(NC[C@H]1COCCN1C(=O)N1CCCC1CCO)c1ccc(-c2noc(C(F)(F)F)n2)cc1 (stereo partly drawn) [Example 306, N-(((3S)-4-((2-(2-hydroxyethyl)pyrrolidin-1-yl)carbonyl)morpholin-3-yl)methyl)-4-(5-(trifluoromethyl)-1,2,4-oxadiazol-3-yl)benzamide]
94% | 7% |  |  | O=C(NCCO)c1cccc(C(=O)N2CCOC[C@@H]2CNC(=O)c2ccc(-c3noc(C(F)(F)F)n3)cc2)c1 [Example 271, N-(2-hydroxyethyl)-3-(((3S)-3-(((4-(5-(trifluoromethyl)-1,2,4-oxadiazol-3-yl)benzoyl)amino)methyl)morpholin-4-yl)carbonyl)benzamide]
98% | 27% |  |  | Cc1nnsc1C(=O)N1CCOCC1CNC(=O)c1ccc(-c2noc(C(F)(F)F)n2)s1 (stereo not drawn) [Example 237, N-((4-((4-methyl-1,2,3-thiadiazol-5-yl)carbonyl)morpholin-3-yl)methyl)-5-(5-(trifluoromethyl)-1,2,4-oxadiazol-3-yl)thiophene-2-carboxamide]
99% | 17% |  |  | O=C(NCC1CN(C(=O)c2ccccc2)CCN1C(=O)c1ccccc1)c1ccc(-c2noc(C(F)(F)F)n2)cc1 (stereo not drawn) [Example 165, N-((1,4-dibenzoylpiperazin-2-yl)methyl)-4-(5-(trifluoromethyl)-1,2,4-oxadiazol-3-yl)benzamide]
96% | 15% |  |  | O=C(NCC1COCCN1C(=O)c1cc(Cl)cc(Cl)c1)c1ccc(-c2noc(C(F)(F)F)n2)s1 (stereo not drawn) [Example 211, N-((4-(3,5-dichlorobenzoyl)morpholin-3-yl)methyl)-5-(5-(trifluoromethyl)-1,2,4-oxadiazol-3-yl)thiophene-2-carboxamide]
99% | 34% |  |  | O=C(NCC1COCCN1C(=O)C1C2CC3CC(C2)CC1C3)c1ccc(-c2noc(C(F)(F)F)n2)s1 (stereo not drawn) [Example 256, N-((4-(adamantan-2-ylcarbonyl)morpholin-3-yl)methyl)-5-(5-(trifluoromethyl)-1,2,4-oxadiazol-3-yl)thiophene-2-carboxamide]
98% | 43% |  |  | Cc1nonc1C(=O)N1CCOCC1CNC(=O)c1ccc(-c2noc(C(F)(F)F)n2)s1 (stereo not drawn) [Example 236, N-((4-((4-methyl-1,2,5-oxadiazol-3-yl)carbonyl)morpholin-3-yl)methyl)-5-(5-(trifluoromethyl)-1,2,4-oxadiazol-3-yl)thiophene-2-carboxamide]
98% | 12% |  |  | O=C(NC[C@H]1COCCN1C(=O)N1CCCCC1)c1ccc(-c2noc(C(F)(F)F)n2)cc1 [Example 89, N-(((3S)-4-(piperidin-1-ylcarbonyl)morpholin-3-yl)methyl)-4-(5-(trifluoromethyl)-1,2,4-oxadiazol-3-yl)benzamide]
98% | 20% |  |  | O=C(NCC1COCCN1C(=O)c1ccncc1)c1ccc(-c2noc(C(F)(F)F)n2)cc1 (stereo not drawn) [Example 14, N-((4-isonicotinoylmorpholin-3-yl)methyl)-4-(5-(trifluoromethyl)-1,2,4-oxadiazol-3-yl)benzamide]
